Test results: US20250011331A1 (Nimbus Saturn, Inc., priority 2021, published 2025)

Each molecule was assayed against T1, HPK1 (Homo sapiens, UniProt Q92918) (assay: HPK1 biochemical enzyme assay (microfluidic mobility shift)). Settings: 1.5 nM HPK1 (Invitrogen), 1 mM ATP, 30 min preincubation, 60 min at RT, Caliper EZ Reader.
T1 construct: purchased Invitrogen
Protocol: HPK1 biochemical enzyme assay: HPK1 enzyme inhibition was measured using a microfluidic mobility shift assay. Reactions were performed in a 384-well plate, containing 1.5 nM HPK1 (Invitrogen), in assay buffer (Cama Biosciences; pH 7.4). Test compounds were titrated in ten point curves (top final assay concentration 3 μM), and preincubated with enzyme/substrate mix for 30 min prior to initiation of the reaction by addition of ATP (1 mM final concentration) and substrate (1 μM final concentration; Carna Biosciences) diluted in assay buffer supplemented by MgCl2 (final assay concentration of 5 mM). Following 60 min incubation at RT, the reaction was terminated by addition of 60 μl/well termination buffer (Carna Biosciences) and signal determination using a Caliper EZ Reader (Perkin Elmer, UK).

T1 sequence (Q92918 whole entry): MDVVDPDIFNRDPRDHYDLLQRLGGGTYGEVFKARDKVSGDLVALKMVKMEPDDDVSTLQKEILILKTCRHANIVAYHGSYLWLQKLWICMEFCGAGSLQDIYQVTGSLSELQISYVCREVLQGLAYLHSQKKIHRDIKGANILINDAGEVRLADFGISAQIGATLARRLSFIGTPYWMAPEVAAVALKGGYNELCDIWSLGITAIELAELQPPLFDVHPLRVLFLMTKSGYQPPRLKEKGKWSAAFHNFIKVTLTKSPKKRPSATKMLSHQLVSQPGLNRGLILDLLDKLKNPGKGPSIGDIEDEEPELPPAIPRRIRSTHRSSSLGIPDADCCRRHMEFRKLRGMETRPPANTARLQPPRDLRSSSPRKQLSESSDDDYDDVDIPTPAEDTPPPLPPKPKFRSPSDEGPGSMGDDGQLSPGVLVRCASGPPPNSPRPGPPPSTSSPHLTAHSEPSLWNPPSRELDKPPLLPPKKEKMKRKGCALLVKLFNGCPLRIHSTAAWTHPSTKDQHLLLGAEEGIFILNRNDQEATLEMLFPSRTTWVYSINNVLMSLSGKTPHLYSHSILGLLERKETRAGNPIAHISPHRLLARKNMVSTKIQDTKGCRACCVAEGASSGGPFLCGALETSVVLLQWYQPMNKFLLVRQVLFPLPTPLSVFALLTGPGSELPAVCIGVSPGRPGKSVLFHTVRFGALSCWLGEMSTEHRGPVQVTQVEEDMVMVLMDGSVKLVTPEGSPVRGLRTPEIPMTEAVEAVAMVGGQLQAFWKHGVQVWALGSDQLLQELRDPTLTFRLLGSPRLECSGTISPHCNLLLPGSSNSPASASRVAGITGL

IC50 [nM]	Compound
≤ 100	CO[C@H]1CCN(Cc2nc(Nc3ccc(-c4cnc5cc(F)ccn45)c4c3C(=O)NC4)ccc2C2CCN(C)C(=O)C2)C1 (stereo partly drawn) [Compound I-43, 4-(7-fluoroimidazo[1,2-a]pyridin-3-yl)-7-[[6-[[(3S)-3-methoxypyrrolidin-1-yl]methyl]-5-(1-methyl-2-oxo-4-piperidyl)-2-pyridyl]amino]isoindolin-1-one]
≤ 100	CN(C)Cc1nc(Nc2ccc(-c3cnc4cc(F)ccn34)c3c2C(=O)NC3)ccc1[C@@H]1COCCO1 (single isomer, unassigned) [Compound I-15]
≤ 100	CN(C)Cc1nc(Nc2ccc(-c3cnc4cnccn34)c3c2C(=O)NC3)ccc1OCC1CCC(F)(F)CC1 [Compound I-11]
≤ 100	CC(c1ccc(Nc2ccc(-c3cnc4cnccn34)c3c2C(=O)NC3)nc1CN(C)C)C1CCOCC1 (stereo not shown) [Compound I-35]
